Data as given in patent US20240366648A1, “NAD-AUGMENTATION THERAPY FOR PARKINSON'S DISEASE” (Vestlandets Innovasjonsselskap AS (VIS), priority 2021, published 2024).

Key:
individuals with PD = test: Phase II trial, brain MRI at baseline and week 52 (Example 3); assay type: in vivo, human; settings: 80 individuals who completed 52 weeks (1000 mg NR or placebo, blinded)
Protocol: To further test NR as a neuroprotective therapy for PD, and in particular to assess NR in delaying nigrostriatal degeneration or denervation, and clinical disease progression in patients with early PD, a multi-centre phase II randomized double-blinded clinical trial is performed, comparing NR to placebo in individuals with early stage PD.
Each capsule of NR contains 250 mg of NR. Patients are administered orally 2 capsules (each 250 mg) two times a day (1000 mg daily total) for the duration of the study (52 weeks). Placebo capsules are administered similarly (2 capsules two times a day). The study medication is to be taken every day during the treatment period, including prior to study visits and imaging.
The present study is a randomized, double-blind phase 11 trial, where a total of 400 individuals with PD receive 1000 mg NR or placebo for a period of 52 weeks. Extensive medical testing and screening, including brain MRI, is performed both at baseline and end-of-study (i.e., after 52 weeks of exposure). […] The therapy can therefore be considered not to be associated with an increase in glioma or brain neoplasm prevalence over the duration of treatment.

cerebral metabolism = test: FDG-PET metabolic brain network analysis (NRRP/PDRP), phase I trial; assay type: in vivo, human
Protocol: PET-MRI imaging was performed with a 3T Siemens Biograph mMR scanner, software version VE11P-SPO3. Subjects were administered 200 MBq of 18F Fluorodeoxyglucose (FDG) before being positioned in the scanner. After 31P-MRS spectra had been acquired, an 8-channel Siemens mMR Head coil was used for further MR imaging, which was performed simultaneously with FDG PET. In all subjects, PET acquisition began 25 to 30 minutes after the injection of FDG and lasted 30 minutes. The resulting emission data were reconstructed using Siemens HD-PET algorithm with Siemens HiRes Brain MRAC, with voxel size of 2.3×2.3×5.0 mm^3. PET images were anonymized and archived as DICOM files with a matrix size of 344×344×127 and an isotropic voxel size of 2.09×2.09×2.03 mm^3.
FDG-PET scans were transferred electronically to the Center for Neurosciences at The Feinstein Institutes for Medical Research (Manhasset, NY, USA) and analyzed using automated computing pipelines implemented in MATLAB 7.5 (MathWorks, Natick, MA) using in-house Scan Analysis and Visualization (ScAnVP) software (available at http://feinsteinneuroscience.orq). Images were first pre-processed using Statistical Parametric Mapping (SPM8) software (http://fil.ion.ucl.ac.uk/spm; Wellcome Centre for Human Neuroimaging, London, UK). Of the 30 participants, the baseline scan of one NR subject was excluded on technical grounds. In the remaining subjects, FDG-PET scans acquired at visit 1 and visit 2 were aligned to produce a mean image, which was spatially normalized in standard Montreal Neurological Institute (MNI) anatomic space along with the individual scans from each time point. The normalized images were then smoothed with a 10-mm Gaussian filter in three dimensions to enhance the signal to noise ratio.
For the PET-analyses, the subjects in the NR group were classified based on their cerebral NAD-response, measured by 31P-MRS. Subjects showing increased cerebral NAD levels at visit 2 were termed “MRS-responders,” whereas subjects showing no increase in cerebral NAD were termed “MRS non-responders”.
To identify an NR-related metabolic pattern (NRRP), we analyzed paired metabolic scan data from the 10 MRS responders in the NR group (ATP-beta; NAD-total; ATP-alpha; ATP-gamma; PCr (Phosphocreatine); MP (membrane phospholipids); GPC (glycerophosphocholine); GPE (glycerophosphoethanolamine); Pi (inorganic phosphate); Pc (phosphocholine); PE (phosphoethanolamine); Total NAD/PCr; Total NAD/ATP-alpha) using ordinal trends/canonical variates analysis (OrT/CVA), a supervised form of principal component analysis (PCA) (Habeck C, Krakauer J W, Ghez C, Sackeim H A, Eidelberg D, Stern Y et al. A new approach to spatial covariance modeling of functional brain imaging data: ordinal trend analysis. Neural computation 2005; 17: 1602-1645).
This multivariate approach is designed to detect and quantify regional covariance patterns (i.e., metabolic networks) for which expression values (i.e., subject scores) increase or decrease with treatment in all or most of the subjects (Niethammer M, Tang C C, Vo A, Nguyen N, Spetsieris P, Dhawan V et al. Gene therapy reduces Parkinson's disease symptoms by reorganizing functional brain connectivity. Science translational medicine 2018; 10; Ko J H, Feigin A, Mattis P J, Tang C C, Ma Y, Dhawan V et al. Network modulation following sham surgery in Parkinson's disease. The Journal of clinical investigation 2014; 124: 3656-3666). […] Likewise, the reliability of the voxel loadings (i.e., region weights) on the resulting network topography was assessed using bootstrap resampling procedures (Mure H, Hirano S, Tang C C, Isaias I U, Antonini A, Ma Y et al. Parkinson's disease tremor—related metabolic network: characterization, progression, and treatment effects. Neuroimage 2011; 54: 1244-1253; Habeck C, Stern Y. Multivariate data analysis for neuroimaging data: overview and application to Alzheimer's disease. Cell biochemistry and biophysics 2010; 58: 53-67). […]

**Q.** `NC(=O)c1ccc[n+]([C@@H]2O[C@H](CO)[C@@H](O)[C@H]2O)c1` [NR, nicotinamide riboside] was tested. Which “cases of glioma or other brain neoplasms on brain MRI” value (individuals with PD) did it give?
**A.** no cases of glioma or any other brain neoplasms

**Q.** And the “NR-related metabolic pattern (NRRP) topography” value (cerebral metabolism; 10 MRS responders, OrT/CVA, PC1)?
**A.** bilateral metabolic reductions in the caudate and putamen, extending into the adjacent globus pallidus, and in the thalamus

**Q.** And the “Zmax, reduced metabolic activity as part of the NRRP network” value (“Zmax, reduced metabolic activity as part” below) (cerebral metabolism; Anterior Cingulate (left), BA 32, MNI −4,44,18)?
**A.** 2.2

**Q.** And the “Zmax, reduced metabolic activity as part” value (cerebral metabolism; Anterior Cingulate (right), BA 24, MNI 4,8,48)?
**A.** 2.3

**Q.** What about the “Zmax, reduced metabolic activity as part” value (cerebral metabolism; Anterior Cingulate (right), BA 32, MNI 4,46,−8) of the same compound?
**A.** 2.6

**Q.** And the “Zmax, reduced metabolic activity as part” value (cerebral metabolism; Lentiform Nucleus (left), Putamen, MNI −20,10,−8)?
**A.** 3.5

**Q.** What about the “Zmax, reduced metabolic activity as part” value (cerebral metabolism; Lentiform Nucleus (left), Putamen, MNI −28,−2,−2) of the same compound?
**A.** 3.3

**Q.** And the “Zmax, reduced metabolic activity as part” value (cerebral metabolism; Lentiform Nucleus (right), Putamen, MNI 22,10,−8)?
**A.** 3.9

**Q.** And the “subjects with increased NRRP expression” value (cerebral metabolism; MRS responders, p=0.018 permutation test)?
**A.** 8 of 10

**Q.** And the “Zmax, reduced metabolic activity as part” value (cerebral metabolism; Middle Frontal Gyrus (left), BA 8, MNI −26,30,42)?
**A.** 1.9

**Q.** What about the “ordinal trend in NRRP expression” value (cerebral metabolism; NR group as a whole, p=0.027 permutation test) of the same compound?
**A.** remained significant

**Q.** What about the “correlation (r) of changes in NRRP expression with changes in UPDRS motor ratings, after excluding one data point” value (cerebral metabolism; NR group, excluding greatest increase in UPDRS motor score, p=0.048) of the same compound?
**A.** −0.556

**Q.** And the “correlation (r) of changes in NRRP expression with changes in UPDRS motor ratings” value (cerebral metabolism; NR group, p=0.026)?
**A.** −0.59

**Q.** And the “correlation of PDRP changes with clinical outcome” value (cerebral metabolism; NR group, p=0.73)?
**A.** no correlation

**Q.** And the “Zmax, reduced metabolic activity as part” value (cerebral metabolism; Posterior Cingulate (bilateral), BA 31, MNI 0,−30,36)?
**A.** 3.5

**Q.** And the “Zmax, reduced metabolic activity as part” value (cerebral metabolism; Precuneus (left), BA 7, MNI −6,−72,40)?
**A.** 2.6

**Q.** What about the “Zmax, reduced metabolic activity as part” value (cerebral metabolism; Prefrontal Cortex (right), BA 9, MNI 44,16,30) of the same compound?
**A.** 3.0

**Q.** What about the “Zmax, reduced metabolic activity as part” value (cerebral metabolism; Superior Frontal Gyrus (left), BA 9, MNI −32,44,28) of the same compound?
**A.** 2.5

**Q.** And the “Zmax, reduced metabolic activity as part” value (cerebral metabolism; Superior Frontal Gyrus (left), BA 10, MNI −28,56,6)?
**A.** 2.5

**Q.** What about the “Zmax, reduced metabolic activity as part” value (cerebral metabolism; Thalamus (left), Anterior, MNI −10,−22,4) of the same compound?
**A.** 2.5

**Q.** And the “Zmax, reduced metabolic activity as part” value (cerebral metabolism; Thalamus (right), Medial Dorsal, MNI 8,−18,4)?
**A.** 3.0
